According to patent EP0497740B1, “Benzyloxyphenyl derivatives” (SANDOZ LTD., priority 1991, dated 1992):

What was measured:
HACAT keratinocytes = assay: Inhibition of TGFa- or EGF-specific proliferation of HACAT keratinocytes (3H-thymidine incorporation); format: cell-based; conditions: test 1: HaCaT cells stimulated with recombinant human TGFa or EGF, two days
Procedure: 1. Inhibition of TGFa- or EGF-specific proliferation of HACAT keratinocytes:
The spontaneously immortalized aneuploid human keratinocyte HaCaT cell line, which has a transformed phenotype in vitro but remains non-tumorigenic, is grown in DMEM H21 medium supplemented with 5 % FCS and 2.5 % glutamine. 5 ml aliquots of a cell suspension adjusted to 2 x 10^5 cells/ml are seeded into 50 ml culture flasks and the cells are cultured for 2 to 3 days in DMEM medium supplemented with 5 % FCS. When 90-100 % confluence is attained cells are trypsinized, washed, suspended in KBM medium supplemented with 0.2 % dialyzed FCS (Gibco) and Ca^++ to a final concentration of 0.06 mM, and 2 x 10^4 cells are seeded into 96 wells cell culture plates. Proliferation is stimulated with recombinant human TGFa or EGF (reconstituted in 0.1 M acetic acid) at various concentrations in the presence of inhibitors. Cells are grown for two days at 37 / 5 % CO2. During the last 16 hours incorporation of ^3H-thymidine (1 µ.Ci/well) is performed. Cells are washed with ice-cold PBSdef. 3 times and trichloroacetic acid twice, solubilized in 100 µl of 0.1 N NaOH containing 1 % SDS, and radioactivity is counted. Inhibition of cell proliferation is expressed as % of the control.

[1] = test system: oxazolone-induced allergic contact dermatitis; assay: Inhibition of oxazolone-induced allergic contact dermatitis in the mouse (pinnal swelling, topical application); format: in vivo; conditions: test 3: mouse, two applications, concentration of 0.4 %, relative to vehicle (ethanol/acetone 7:3)
Procedure: 3. Inhibition of oxazolone-induced allergic contact dermatitis in the mouse
Sensitization is induced by a single application of 2 % 6 oxazolone (10 µl) onto the abdominal skin of mice (8 animals per group). Hypersensitivity reaction causing pinnal swelling is elicited by a second exposure to 2 % oxazolone applied to one pinna of each animal after 8 days.
Inhibition of pinnal swelling is achieved by two topical applications of test compound (30 minutes before and after elicitation of the challenge reaction). Efficacy is determined by the difference of pinnal weights of animals treated with the drug and with the vehicle (ethanol/acetone 7:3), respectively, and expressed in % of swelling with vehicle application alone.

SMILES	IC50 (HACAT keratinocytes) [µM]	IC50 (HACAT keratinocytes; Homo sapiens, HaCaT) [µM]	inhibition of swelling [1] [%]
N#CC(=Cc1ccc(O)c(O)c1)C(N)=S [AG213]	5 to 50	–	–
COC(=O)c1cc(OCc2cc(OC)ccc2OC)ccc1O [Example 1, 5-(2,5-Dimethoxybenzyloxy)-2-hydroxybenzoic acid methyl ester]	–	< 1	46
O=c1c(-c2ccc(O)cc2)coc2cc(O)cc(O)c12 [genistein]	5	5 to 50	–
